One assay has as its system MDA-MB-231. The experiment in a line: Antiproliferative activity against human MDA-MB-231 cells assessed as growth inhibition after 72 hrs by MTT assay. In kind it is functional. The following applies: MDA-MB-231, 72 h.
Assay [1] can be described thus: Antioxidant activity assessed as DPPH radical scavenging activity at 0.18 umol/ml incubated for 30 mins under dark condition relative to control. In kind it is functional. (Loss of DPPH colour is used to gauge radical scavenging.)
A short description of assay [2]: Antioxidant activity against linoleic acid assessed as inhibition of beta-carotene bleaching at 0.18 umol/ml measured at 15 mins interval for 1 hr. Type of assay: functional.
In a further assay the test system is Daoy. The assay can be described thus: Antiproliferative activity against human DaOY cells assessed as growth inhibition after 72 hrs by MTT assay. In kind it is functional.
Assay [3] in a line: Metal chelating activity assessed as compound-Fe2+ complex formation by measuring chelated ferrous ion at 0.18 umol/ml preincubated with Mohr's salt followed by ferozine addition and measured after 10 mins.
The test system of a further assay is HeLa. The assay can be described thus: Antiproliferative activity against human HeLa cells assessed as growth inhibition after 72 hrs by MTT assay. Type of assay: functional. Background: Formazan colour is commonly taken as a measure of viable cells.

Bounds are passed on as bounds.

As a reminder, the GI50 is the concentration giving 50% growth inhibition. The inhibition is the change of the read-out against control, counted positive when it falls. In the case of `C=C(CC[C@@H](C)[C@H]1CC[C@@]2(C)[C@@H]3CC[C@H]4C(C)(C)[C@@H](OC(=O)[C@H](CSSC[C@H](NC(=O)OC(C)(C)C)C(=O)O[C@H]5CC[C@]67C[C@@]68CC[C@]6(C)[C@@H]([C@H](C)CCC(=C)C(C)C)CC[C@@]6(C)[C@@H]8CC[C@H]7C5(C)C)NC(=O)OC(C)(C)C)CC[C@@]45C[C@]35CC[C@]12C)C(C)C`, the GI50 with MDA-MB-231, in the assay on Daoy and in the assay with HeLa was over 10 µM throughout. In addition, the values for the inhibition in assay [1] and in assay [2] were 0% and 5%, respectively. The Activity in assay [3] was found to be 0%.

Consider `COc1cccc2c1C(=O)c1c(O)c3c(c(O)c1C2=O)C[C@@](O)(C(=O)CO)C[C@@H]3O[C@H]1C[C@H](N)[C@H](O)[C@H](C)O1` [DOXORUBICIN], for which the results for the GI50 in the assay with MDA-MB-231, in the assay on Daoy and in the assay on HeLa were 0.046 µM, 0.016 µM and 0.093 µM, respectively.

On to `O=c1c(O)c(-c2ccc(O)c(O)c2)oc2cc(O)cc(O)c12`, for which the Activity in assay [3] was found to be 22%.

The values above are taken from ChEMBL document CHEMBL4411268, “Phytosterol and γ-Oryzanol Conjugates: Synthesis and Evaluation of their Antioxidant, Antiproliferative, and Anticholesterol Activities” (2018).
